Measured values from article PMC7255010, “Small-molecule activating SIRT6 elicits therapeutic effects and synergistically promotes anti-tumor activity of vitamin D3 in colorectal cancer” (Theranostics, 2020).
Values joined by “and” are separate entries in the source; they are usually repeats but may differ in a detail not shown here. Equal entries are not always repeated.

How the values were obtained:
SIRT6 = SIRT6 (Homo sapiens, UniProt Q8N6T7); assay: Cellular thermal shift assay (CETSA) in HCT116 cells; assay type: cell-based
Sequence of SIRT6 (Q8N6T7 whole entry): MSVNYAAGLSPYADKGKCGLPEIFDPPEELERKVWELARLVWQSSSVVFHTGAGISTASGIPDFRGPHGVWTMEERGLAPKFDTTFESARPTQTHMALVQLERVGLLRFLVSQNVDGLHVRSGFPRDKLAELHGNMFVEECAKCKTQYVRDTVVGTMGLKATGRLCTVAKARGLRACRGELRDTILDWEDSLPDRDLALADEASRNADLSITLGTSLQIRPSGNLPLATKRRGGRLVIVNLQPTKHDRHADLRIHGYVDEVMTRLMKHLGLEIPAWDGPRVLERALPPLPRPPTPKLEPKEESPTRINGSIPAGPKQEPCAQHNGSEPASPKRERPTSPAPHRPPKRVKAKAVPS
Protocol: CETSA was conducted as previously described. HCT116 cells were seeded in 10-cm cell culture dishes and grown to ~90% confluence. […] Cell pellets were collected by centrifugation (1,000 × g, 5 min, 4 °C), resuspended in 600 μL of 1× PBS, and distributed into different 0.2-mL tubes, each with 40 μL of cell suspension. The tubes were heated at the indicated temperature endpoints (38.5-51.5 °C) for 3 min in a PCR thermocycler. Immediately after heating, the tubes were incubated at room temperature for another 3 min. The samples were subjected to two freeze-thaw cycles in liquid nitrogen. Each cell lysate was centrifuged (15,000 × g for 20 min at 4 °C), and 25 μL of supernatant was collected. The supernatants were lysed in 25 μL of 2× SDS loading buffer at 95 °C for 10 min. Then, the samples were centrifuged, and the supernatants were analyzed by western blotting. Quantification of the SIRT6 level was performed with ImageJ V4. The signal intensity of each protein band on the western blots was normalized to the signal intensity observed at 38.5 °C. The corresponding signal intensities were plotted against temperature in GraphPad Prism V7. Each data point is shown as the mean ± s.e.m. of four independent experiments.

HCT116 xenograft tumors [1] = assay: Combination treatment in the HCT116 CDX model; assay type: in vivo, BALB/c nude mice; details: 15 mg/kg MDL-811 plus 50 μg/kg 1,25(OH)2D3 intraperitoneally every other day for 14 days, vs vehicle or single drug
[2] = system: HCT116, HT29, and LOVO cells; assay: Combination drug treatment, CCK-8, Chou-Talalay combination index; assay type: cell-based, human; details: MDL-811 (5 to 10 μM) plus 1,25(OH)2D3 (1 to 10 μM), 48 h, three CRC cell lines; CI < 1 = synergism
Protocol: 1,25(OH)2D3 was purchased from TargetMol. For cell proliferation assays, 1,25(OH)2D3 was dissolved in DMSO, stored at -20 °C and protected from light. The maximum final DMSO concentration used in all treatment conditions was 0.25%. […] Then, cell proliferation assays were performed using the CCK-8 method. Combination effects were analyzed by the Chou-Talalay combination index (CI) method. The CI values and the fraction of cells affected values were generated using CompuSyn Version 1.0 software. CI values of < 1, = 1, and > 1 indicate synergism, additivity, and antagonism between the drugs, respectively.

HCT116 xenograft tumors [3] = assay: HCT116 CDX model; assay type: in vivo, BALB/c nude mice; details: 20 or 30 mg/kg intraperitoneally every other day for 16 days
Protocol: All animal studies were performed following federal and institutional guidelines approved by the Institutional Animal Care and Use Committee at Shanghai Jiao-Tong University School of Medicine. To establish the CDXs, HCT116 cells (1 × 10^6) suspended in 100 μL of 1× PBS were injected subcutaneously into the flanks of six-week-old male BALB/c nude mice. To establish the PDXs, primary tumors resected from two independent CRC patients (patient #1 and #2) were collected in the culture medium. The necrotic and supporting tissues were carefully removed using sterilized surgical blades. The gross tumor was cut into fragments (2-3 mm in diameter) and inoculated subcutaneously into the flanks of nude mice. The mice were monitored daily, and caliper measurements began when tumors became visible. The tumor volume was monitored every other day via calipers. The tumor volume was calculated using the following formula: (L × W ^2) / 2, where L and W refer to the tumor diameter along the longitudinal and transverse axes, respectively. When the mean tumor volume was approximately 100 to 250 mm^3, the mice were randomly grouped (n = 6 per group for CDXs, n = 8 per group for PDXs), and treatment was initiated. […] After treatment or if meeting the humane endpoint criteria, the mice were sacrificed by CO2 asphyxiation. The tumors were dissected, imaged, and weighed. […]

[4] = Pharmacokinetic studies in mice; assay type: in vivo; details: male, mouse, plasma, C57BL/6J mice
Protocol: Pharmacokinetic studies were performed by Shanghai Medicilon Inc, China, following standard protocols. Briefly, six-week-old male C57BL/6J mice were grouped randomly (n = 5 per group). […] Two administration formulations were prepared in the vehicle with 5% DMSO, 10% Solutol and 85% saline, with the pH adjusted to 7.0-8.0. After treatment, the mice were sacrificed, and their plasma samples were collected at 5 min, 15 min, 30 min, 1 h, 2 h, 4 h, 8 h, and 24 h. The drug concentration in plasma was analyzed by LC-MS/MS. Pharmacokinetic parameters were calculated using Analyst Software 1.6.3 from mean plasma concentration-time profiles. The area under the curve (AUC) was measured from time versus concentration data by the linear trapezoidal rule. […] The calculation was normalized to relative doses.

[5] = system: CRC cells (HCT116, HT29, and SW480); assay: Calcein-AM/PI live-dead double staining; assay type: cell-based; details: 10 μM MDL-811, CRC cells
Protocol: Live-dead cell staining was performed following the protocol of a Calcein-AM/PI Double Stain Kit (Yeasen). Briefly, 3 × 10^4 cells per well were seeded into 24-well plates. […] Then, cell images were acquired with a fluorescence microscope (Nikon Inverted Research Microscope Eclipse Ti). For each assay, five random fields of view per well were imaged at 10× magnification.

CYP24A1 = assay: RT-qPCR of CYP24A1 mRNA in CRC cells; assay type: cell-based, human
Protocol: Total RNA was extracted with TRIzol reagent (Invitrogen) according to the manufacturer's instructions. For cDNA synthesis, 1 μg of total RNA was reverse transcribed using a FastKing RT Kit (Tiangen). RT-qPCRs were run in triplicate using SYBR Green master mix (Roche) in an ABI 7900 Thermal Cycler (Applied Biosystems) according to the manufacturer's instructions. RT-qPCRs were performed in triplicate, and the mean cycle threshold (Ct) values were calculated for expression analysis. The mRNA levels of target genes were calculated using the 2^-ΔΔCt method. The expression data were normalized to β-actin expression levels and are presented as the mean ± s.e.m. of three independent experiments.

[6] = 30 mg/kg, IP 30 mg/mL, mean of five mice

Cc1cc(F)c(Br)cc1NS(=O)(=O)c1ccc(NS(=O)(=O)c2cc(Cl)cc(Cl)c2)cc1CN1CCOC[C@H]1C [MDL-811]
Melting Temperature (Tm) of SIRT6 (SIRT6; 10 µM MDL-811, 24 h, HCT116 cells, DMSO 45.8 ± 0.3, mean ± s.e.m., four experiments): 47.6 ± 0.1 °C and 47.6 °C
ΔTm at 10 µM (SIRT6; HCT-116): 1.8 ± 0.2 °C
tumor growth, cotreatment (HCT116 xenograft tumors [1]): dramatically enhanced tumor growth regression
CI values (Chou-Talalay) [2]: < 1
tumor growth (HCT116 xenograft tumors [3]): strongly suppressed tumor growth in a dose-dependent manner
AUC(0-inf) [4, 6]: 19700 ng·h/mL
half-life [4, 6]: 1.38 h
AUC0-t ([4]; 30 mg/kg, IP 30 mg/mL, mean of five mice, read-out: AUC0-t): 19600 ng·h/mL
Cmax ([4]; 30 mg/kg, IP 30 mg/mL, mean of five mice, read-out: Cmax): 5330 ng/mL
MRT ([4]; 30 mg/kg, IP 30 mg/mL, mean of five mice, read-out: MRT): 2.63 h
tmax ([4]; 30 mg/kg, IP 30 mg/mL, mean of five mice, read-out: tmax): 0.5 h
bioavailability ([4]; intraperitoneal, IP 30 mg/mL vs IV, ratio of AUC normalized to dose, read-out: F (bioavailability)): 93%
cell death, live-dead double staining [5]: did not cause observable cell death
1,25(OH)2D3-enhanced CYP24A1 transcription, cotreatment (CYP24A1; HCT116 and HT29 cells, MDL-811 (5 µM) plus 1,25(OH)2D3 (5 µM), 48 h): effectively abolished
CYP24A1 mRNA expression levels (CYP24A1; HCT116 cells, 10 µM MDL-811, 48 h): markedly decreased CYP24A1 mRNA expression levels
